Reference: patent publication US20110288103A1, “COMPOUNDS, COMPOSITIONS, AND METHODS COMPRISING 1,3,4-OXADIAZOLE DERIVATIVES” (Institute for OneWorld Health, priority 2010, published 2011)
Where “and” joins values, the source holds several entries; their conditions need not be identical. Equal entries are not always repeated. Entries after “also recorded” stand apart in the source; their conditions may differ.

Tests used:
[1] = system: calcium-activated chloride channels (CaCC); assay: Whole cell patch clamp recording of CaCC-mediated Cl- currents in JME/CF15 cells; assay type: cell-based
Procedure: Effect on calcium-activated chloride channels (CaCC) was investigated in JME/CF15 cells (see Jefferson et al. “Expression of normal and cystic fibrosis phenotypes by continuous airway epithelial cell lines” Am J. Physiol. (1990) December; 259 (6 Pt 1): L496-505). […] Test compound was Compound 10 ('915/2 in FIGS. 1 and 2) and positive control for CaCC was flufenamic acid (FFA).
JME/CF15 cells were prepared for whole cell patch clamp recordings following standard protocols (as described in Fischer et al. “Basolateral Cl channels in primary airway epithelial cultures” Am J Physiol Lung Cell Mol Physiol. (2007) 292:L1432-L1443, which is incorporated herein by reference in its entirety) while incubated in a bath solution as follows (mM): 140 HCl, 158 N-methyl-D-glucamine (NMDG), 2 CaCl2, 1 MgCl2, 12.5 Hepes, 10 glucose, pH 7.4. To selectively activate calcium-activated chloride channels (CaCC), the pipette solution consisted of (in mM) HCl, 160 N-methyl-D-glucamine (NMDG), 1 MgCl2, 5 Hepes, 1 glucose, 5 MgATP, pH 7.4.
(§1) Conventional whole cell patch clamp recordings were made. Effects of compounds were tested in 2 runs at 1 and 10 μM, respectively, on CaCC. To activate CaCC mediated Cl^− conductances, the pipette solution contained 500 nM CaCl2 without EGTA (in order to allow for agonist induced regulation of CaCC) or a mixture of 1.8 mM CaCl2 and 2 mM EGTA resulting in a free concentration of calcium of 500 nM to maintain a stable intracellular calcium concentration.
(§2) CaCC-mediated Cl^− currents were measured with a pipette solution that contained ˜500 nM free Ca to activate CaCC. […] This is likely a Ca-activated K^+ conductance because i) it generates a large outward current (which rules out a Cl^− conductance), and ii) it is transient (likely because intracellular K^+ is exhausted).

[2] = system: intestinal loops injected with cholera toxin (CTX); design: species or system mice (CD1 strain); conditions: mouse, in vivo
[3] = system: Ca-activated K+ conductance; assay: Whole cell patch clamp in JME/CF15 cells: additional (K+) conductance; assay type: cell-based
Procedure: as §1, §2
The experimental conditions were not set up to measure a K^+ conductance, i.e., there is no K^+ in the employed solutions, and the measured currents are dependent on the residual K^+ found in cells. […] In an epithelial setting, concurrent block of CaCC and a K^+ conductance may result in weaker blocker efficiency or even in stimulation of secretion.

Q: With `O=C(O)c1ccccc1Nc1cccc(C(F)(F)F)c1` [FFA, flufenamic acid, reference compound] as the compound, how does the “Block of remaining chloride current after compound 10” value ([1]; intracellular calcium unbuffered, 100 μM FFA added after compound 10, FIG. 2) read?
A: Its value is “blocks only slightly more”.

Q: For `O=C(NCc1ccc(Oc2ccccc2)cc1)c1nc(-c2cc(Br)c(O)c(Br)c2)no1` [BF000710032, 3-(3,5-dibromo-4-hydroxyphenyl)-N-(4-phenoxybenzyl)-1,2,4-oxadiazole-5-carboxamide, reference compound], which “% Inhibition” value [2] is on record?
A: Its value is 62.69%^ψ.

Q: What about the “Inhibition of CTX-induced fluid secretion (statistical significance)” value [2] of the same compound?
A: Its value is “statistically significant inhibition”.

Q: For `CN(Cc1ccc(Cl)c(Cl)c1)C(=O)c1nnc(-c2cccc(NS(=O)(=O)C(F)(F)F)c2)o1` [Compound 10, N-(3,4-dichlorobenzyl)-N-methyl-5-(3-(trifluoromethylsulfonamido)phenyl)-1,3,4-oxadiazole-2-carboxamide], which “Block of CaCC-mediated Cl- currents” value ([1]; intracellular calcium stably buffered (with EGTA), ~500 nM free Ca, compound added to bath, runs at 1 and 10 μM, FIG. 1) is on record?
A: The value was “blocking; also recorded: blocked currents”.

Q: And the “Block of CaCC-mediated (remaining) chloride current” value ([1]; intracellular calcium unbuffered (low EGTA), ~500 nM free Ca, 10 μM, FIG. 2)?
A: Its value is “blocking; also recorded: eventually well blocked”.

Q: And the “Activation of a K+ conductance” value ([3]; Ca-buffered solutions)?
A: The value was “not in Ca-buffered”.

Q: What about the “Activation of an additional conductance (likely Ca-activated K+ conductance)” value ([3]; intracellular calcium unbuffered (low EGTA), 10 μM, FIG. 2) of the same compound?
A: Its value is “transiently activated an additional conductance; also recorded: activation of a Ca-activated K^+ conductance”.

Q: What about the “Inhibition of CTX-induced fluid secretion (statistical significance)” value [2] of the same compound?
A: The value was “statistically significant inhibition”.

Q: What about the “Mean net fluid secretion (loop weight/loop length)” value [2] of the same compound?
A: Its value is 0.04996 g/cm and 0.04015 g/cm and 0.07645 g/cm.
